Molecular target: T1, mAChR M1 (UniProt P11229)
T1 sequence (P11229 1-460): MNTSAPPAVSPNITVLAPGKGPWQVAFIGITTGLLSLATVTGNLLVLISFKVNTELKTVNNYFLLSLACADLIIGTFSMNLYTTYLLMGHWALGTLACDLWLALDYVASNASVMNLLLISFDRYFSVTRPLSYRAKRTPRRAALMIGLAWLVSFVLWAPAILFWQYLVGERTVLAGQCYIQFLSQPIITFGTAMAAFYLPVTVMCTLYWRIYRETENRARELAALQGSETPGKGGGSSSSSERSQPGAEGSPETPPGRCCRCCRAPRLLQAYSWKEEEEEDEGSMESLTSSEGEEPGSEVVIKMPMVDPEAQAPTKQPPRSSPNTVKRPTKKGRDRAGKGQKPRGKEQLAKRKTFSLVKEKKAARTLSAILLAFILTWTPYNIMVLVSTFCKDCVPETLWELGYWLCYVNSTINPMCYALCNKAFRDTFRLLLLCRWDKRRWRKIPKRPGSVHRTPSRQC
Assay: mAChR M1 cell-based functional assay (calcium mobilization, potentiation of EC20 acetylcholine response)
Conditions: for M1 AChmax (%): maximal response as % of ACh maximum, CHO-K1 cells expressing M1; for EC50: positive allosteric modulator activity, concentration-dependent increase in EC20 acetylcholine response, CHO-K1 cells, >10 μM estimated where no plateau but >20% increase in ACh response
Source text: Chinese hamster ovary (CHO-K1) cells stably expressing rat (r)M1 were purchased from the American Type Culture Collection and cultured according to their indicated protocol. CHO cells stably expressing human (h)M2, hM3, and hM5 were described previously (Levey, et al., 1991); hM1 and hM4 cDNAs were purchased from Missouri S&T cDNA Resource; rM4 cDNA was provided by T. I. Bonner (National Institutes of Health, Bethesda, Md.). rM2 and rM3 were cloned from a rat brain cDNA library and sequence verified. hM1, rM2, rM3, hM4, and rM4 cDNAs were used to stably transfect CHO-K1 cells purchased from the American Type Culture Collection using Lipofectamine2000. To make stable rM2, hM2, rM3, hM4, and rM4 cell lines for use in calcium mobilization assays, these cells also were stably transfected with a chimeric G-protein (Gqi5) (provided by B. R. Conklin, University of California, San Francisco) using Lipofectamine 2000. rM1, hM1, rM3, hM3, rM5, and hM5 cells were grown in Ham's F-12 medium containing 10% heat-inactivated fetal bovine serum (FBS), 20 mM HEPES, and 50 μg/mL G418 sulfate. rM2-Gqi5, hM2-Gqi5, and hM4-Gqi5 cells were grown in the same medium also containing 500 μg/mL Hygromycin B. Stable rM4-Gqi5 cells were grown in DMEM containing 10% heat-inactivated FBS, 20 mM HEPES, 400 μg/mL G418 sulfate, and 500 μg/mL Hygromycin B.
For high throughput measurement of agonist-evoked increases in intracellular calcium, CHO-K1 cells stably expressing muscarinic receptors were plated in growth medium lacking G418 and hygromycin at 15,000 cells/20 μL/well in Greiner 384-well black-walled, tissue culture (TC)-treated, clear-bottom plates (VWR). Cells were incubated overnight at 37° C. and 5% CO2. The next day, cells were washed using an ELX 405 (BioTek) with four washes (80 μL) of assay buffer then aspirated to 20 μL. Next, 20 μL of 16 μM Fluo-4/acetoxymethyl ester (Invitrogen, Carlsbad, Calif.) prepared as a 2.3 mM stock in DMSO and mixed in a 1:1 ratio with 10% (w/v) Pluronic F-127 and diluted in assay buffer was added to the wells and the cell plates were incubated for 50 min at 37° C. and 5% CO2. Dye was removed by washing with the ELX 405 (four 80 μL washes of assay buffer) then aspirated to 20 μL. Compound master plates were formatted in an 11 point CRC format (1:3 dilutions) in 100% DMSO with a starting concentration of 10 mM using the BRAVO liquid handler (Agilent). Test compound CRCs were then transferred to daughter plates (240 nL) using the Echo acoustic plate reformatter (Labcyte, Sunnyvale, Calif.) and then diluted into assay buffer (40 μL) to a 2× stock using a Thermo Fisher Combi (Thermo Fisher Scientific, Waltham, Mass.).
Calcium flux was measured using the Functional Drug Screening System (FDSS) 6000 (Hamamatsu Corporation, Tokyo, Japan) as an increase in the fluorescent static ratio. Compounds were applied to cells (20 μL, 2×) using the automated system of the FDSS 6000 at 4 s into the 300 s protocol and the data were collected at 1 Hz. At 144 s into the 300s protocol, 10 μL of an EC20 concentration of the muscarinic receptor agonist acetylcholine was added (5×), followed by the addition of 12 μL an EC8O concentration of acetylcholine at the 230 s time point (5×). Agonist activity was analyzed as a concentration-dependent increase in calcium mobilization upon compound addition. Positive allosteric modulator activity was analyzed as a concentration-dependent increase in the EC20 acetylcholine response. Antagonist activity was analyzed as a concentration-dependent decrease in the EC80 acetylcholine response. Concentration-response curves were generated using a four-parameter logistical equation in XLfit curve fitting software (IDBS, Bridgewater, N.J.) for Excel (Microsoft, Redmond, Wash.) or Prism (GraphPad Software, Inc., San Diego, Calif.). […]

| M1 AChmax (%) | EC50 [nM] | SMILES |
| --- | --- | --- |
| 83% | 656 | Cn1cc(-c2cc(F)c(CN3Cc4ccc5nncn5c4C3=O)c(F)c2)cn1 [Compound 3] |
| 81% | 743 | O=C1c2c(ccc3nncn23)CN1Cc1c(F)cc(-c2ccc3ncccc3c2)cc1F [Compound 5] |
| 85.3% | 1630 | Cn1cc(-c2cc(F)c(CN3Cc4ccc5ncnn5c4C3=O)c(F)c2)cn1 [Compound 31, 7-(2,6-difluoro-4-(1-methyl-1H-pyrazol-4-yl)benzyl)-6,7-dihydro-8H-pyrrolo[3,4-e][1,2,4]triazolo[1,5-a]pyridin-8-one] |
| 72 (n = 2) % | – | Cn1cc2c(-c3cc(F)c(CN4Cc5ccc6nncn6c5C4=O)c(F)c3)cccc2n1 [Compound 1, 7-(2,6-difluoro-4-(2-methyl-2h-indazol-4-yl)benzyl)-6,7-dihydro-8H-pyrrolo[3,4-e][1,2,4]triazolo [4,3-a]pyridin-8-one] |
| 85.9% | 677 | Cn1cc(-c2ccc(CN3Cc4ccc5ncnn5c4C3=O)c(F)c2)cn1 [Compound 30] |
| 78% | 688 | Cn1cc2c(-c3ccc(CN4Cc5ccc6nncn6c5C4=O)c(F)c3)cccc2n1 [Compound 2, 7-(2-fluoro-4-(2-methyl-2H-indazol-4-yl)benzyl)-6,7-dihydro-8H-pyrrolo [3,4-e][1,2,4]triazol[4,3-a]pyridin-8-one] |
| 25% | > 10000 | Cc1ccc(CN2Cc3ccc4nccn4c3C2=O)cn1 [Compound 36] |
| – | > 30000 | COc1ccc(-c2ccc(F)c(CN3Cc4ccc5nncn5c4C3=O)c2)cn1 [Compound 26] |
| 26% | > 10000 | O=C1c2c(ccc3nccn23)CN1Cc1ccc(-n2ccnn2)nc1 [Compound 37] |
| 84% | 2100 | Cc1cc(-c2ccc(CN3Cc4ccc5nnc(C)n5c4C3=O)c(F)c2)cc2cn(C)nc12 [Compound 20] |
| 70.1% | 2260 | Cn1cc(-c2ccc(CN3Cc4ccc5nccn5c4C3=O)c(F)c2)cn1 [Compound 27] |
| 76% | 1240 | Cc1nnc2ccc3c(n12)C(=O)N(Cc1c(F)cc(-c2ccc4nn(C)cc4c2)cc1F)C3 [Compound 15] |
| 90% | 502 | Cn1cc2cc(-c3ccc(CN4Cc5ccc6nncn6c5C4=O)c(F)c3)ccc2n1 [Compound 9, 7-(2-fluoro-4-(2-methyl-2H-indazol-5-yl)benzyl)-6,7-dihydro-8H-pyrrolo [3,4-e][1,2,4]triazolo[4,3-a]pyridin-8-one] |
| 84% | 488 | Cn1cc2cc(-c3cc(F)c(CN4Cc5ccc6nncn6c5C4=O)c(F)c3)ccc2n1 [Compound 6] |
| 81% | 1410 | Cc1nnc2ccc3c(n12)C(=O)N(Cc1c(F)cc(-c2cccc4nn(C)cc24)cc1F)C3 [Compound 19] |
| 35.3% | 1310 | Cn1cc2cc(-c3ccc(F)c(CN4Cc5ccc6nncn6c5C4=O)c3)ccc2n1 [Compound 22] |
| 26% | > 10000 | O=C1c2c(ccc3nccn23)CN1Cc1ccc(-n2cccn2)cc1F [Compound 40] |
| 73% | 1750 | O=C1c2c(ccc3nncn23)CN1Cc1ccc(-c2cnc3ccccc3c2)cc1F [Compound 4] |
| 82% | 2140 | Cc1ccc(-c2ccc(CN3Cc4ccc5nnc(C)n5c4C3=O)c(F)c2)c2cn(C)nc12 [Compound 18] |
| – | > 30000 | O=C1c2c(ccc3nncn23)CN1Cc1cc(-c2ccc3ncccc3c2)ccc1F [Compound 25] |

| M1 AChmax (%) | EC50 [nM] | SMILES |
| --- | --- | --- |
| 38% | – | CNC(=O)c1ccc(CN2Cc3ccc4nccn4c3C2=O)cc1 [Compound 41] |
| 72% | 1400 | Cn1cc2c(-c3cc(F)c(CN4Cc5ccc6nccn6c5C4=O)c(F)c3)cccc2n1 [Compound 32] |
| 82% | 1060 | Cc1ccc(-c2ccc(CN3Cc4ccc5nncn5c4C3=O)c(F)c2)c2cn(C)nc12 [Compound 8] |
| 67.7% | 2370 | Cn1cc(-c2cc(F)c(CN3Cc4ccc5nccn5c4C3=O)c(F)c2)cn1 [Compound 28, 2-(2,6-difluoro-4-(1-methyl-1H-pyrazol-4-yl)benzyl)-2,3-dihydro-1H-imidazo[1,2-a]pyrrolo[3,4-e]pyridin-1-one] |
| 56.4% | 1350 | Cn1cc2c(-c3ccc(F)c(CN4Cc5ccc6nncn6c5C4=O)c3)cccc2n1 [Compound 23] |
| 83% | 1210 | Cc1nnc2ccc3c(n12)C(=O)N(Cc1ccc(-c2ccc4nn(C)cc4c2)cc1F)C3 [Compound 16] |
| 42% | – | Cn1cc2cc(-c3cc(F)c(CN4Cc5ccc6nccn6c5C4=O)c(F)c3)ccc2n1 [Compound 35] |
| 35% | > 10000 | O=C1c2c(ccc3nccn23)CN1Cc1ccc(-n2nccn2)cc1 [Compound 42] |
| 57% | 1820 | O=C1c2c(ccc3nncn23)CN1Cc1c(F)cc(-c2cnc3ccccc3c2)cc1F [Compound 13] |
| 84% | 1570 | O=C1c2c(ccc3nncn23)CN1Cc1ccc(-c2ccc3ncccc3c2)cc1F [Compound 10] |
| – | > 30000 | Cc1cn2c3c(ccc2n1)CN(Cc1c(F)cc(-c2cnn(C)c2)cc1F)C3=O [Compound 29] |
| 62% | 3900 | Cn1cc2cc(-c3ccc(CN4Cc5ccc6nccn6c5C4=O)c(F)c3)ccc2n1 [Compound 34] |
| 36.8% | > 10000 | Cn1cc(-c2ccc(F)c(CN3Cc4ccc5nncn5c4C3=O)c2)cn1 [Compound 21] |
| 65% | 2200 | Cn1cc2c(-c3ccc(CN4Cc5ccc6nccn6c5C4=O)c(F)c3)cccc2n1 [Compound 33] |
| 79% | 1790 | Cc1nnc2ccc3c(n12)C(=O)N(Cc1c(F)cc(-c2cnn(C)c2)cc1F)C3 [Compound 14] |
| 81% | 618 | Cc1cc(-c2ccc(CN3Cc4ccc5nncn5c4C3=O)c(F)c2)cc2cn(C)nc12 [Compound 17] |
| 26% | > 10000 | O=C1c2c(ccc3nccn23)CN1Cc1ccc(N2CCOCC2)nc1 [Compound 38] |
| 28% | – | O=C1c2c(ccc3nccn23)CN1Cc1c(F)cc(-c2ccc3ncccc3c2)cc1F [Compound 39] |
| 70% | 2640 | COc1ccc(-c2cc(F)c(CN3Cc4ccc5nncn5c4C3=O)c(F)c2)cn1 [Compound 7] |
| 86% | 856 | Cn1cc(-c2ccc(CN3Cc4ccc5nncn5c4C3=O)c(F)c2)cn1 [Compound 11] |

— US10221175B2, “Substituted pyrrolo[3,4-e]indolizines, imidazo[1,2-a]pyrrolo[3,4-e]pyridines, pyrrolo[3,4-e][1,2,4]triazolo[1,5-a]pyridines and pyrrolo[3,4-e][1,2,4]triazolo[4,3-a]pyridines as positive allosteric modulators of muscarinic acetylcholine receptor M1” (Vanderbilt University, priority 2015, dated 2019)
